{"source": "paper PMC7486443", "about": "“Generation of Phenothiazine with Potent Anti-TLK1 Activity for Prostate Cancer Therapy” (iScience, 2020)", "assay_in_all_cases": "biochemical", "parameters_in_all_cases": "DiscoverX KINOMEscan scanMAX competition binding panel, single concentration, percent of control; remaining binding: dose or concentration left out as unconfirmed", "details_in_all_cases": "KINOMEscan binding, percent of control; read-out: Table S4_SCANMAX REPORT - related to Fig. 1 / Percent Control", "key": {"[1]": {"target": "PIK3CA(E545A) (Homo sapiens, UniProt P42336, E545A)", "sequence (P42336 whole entry E545A)": "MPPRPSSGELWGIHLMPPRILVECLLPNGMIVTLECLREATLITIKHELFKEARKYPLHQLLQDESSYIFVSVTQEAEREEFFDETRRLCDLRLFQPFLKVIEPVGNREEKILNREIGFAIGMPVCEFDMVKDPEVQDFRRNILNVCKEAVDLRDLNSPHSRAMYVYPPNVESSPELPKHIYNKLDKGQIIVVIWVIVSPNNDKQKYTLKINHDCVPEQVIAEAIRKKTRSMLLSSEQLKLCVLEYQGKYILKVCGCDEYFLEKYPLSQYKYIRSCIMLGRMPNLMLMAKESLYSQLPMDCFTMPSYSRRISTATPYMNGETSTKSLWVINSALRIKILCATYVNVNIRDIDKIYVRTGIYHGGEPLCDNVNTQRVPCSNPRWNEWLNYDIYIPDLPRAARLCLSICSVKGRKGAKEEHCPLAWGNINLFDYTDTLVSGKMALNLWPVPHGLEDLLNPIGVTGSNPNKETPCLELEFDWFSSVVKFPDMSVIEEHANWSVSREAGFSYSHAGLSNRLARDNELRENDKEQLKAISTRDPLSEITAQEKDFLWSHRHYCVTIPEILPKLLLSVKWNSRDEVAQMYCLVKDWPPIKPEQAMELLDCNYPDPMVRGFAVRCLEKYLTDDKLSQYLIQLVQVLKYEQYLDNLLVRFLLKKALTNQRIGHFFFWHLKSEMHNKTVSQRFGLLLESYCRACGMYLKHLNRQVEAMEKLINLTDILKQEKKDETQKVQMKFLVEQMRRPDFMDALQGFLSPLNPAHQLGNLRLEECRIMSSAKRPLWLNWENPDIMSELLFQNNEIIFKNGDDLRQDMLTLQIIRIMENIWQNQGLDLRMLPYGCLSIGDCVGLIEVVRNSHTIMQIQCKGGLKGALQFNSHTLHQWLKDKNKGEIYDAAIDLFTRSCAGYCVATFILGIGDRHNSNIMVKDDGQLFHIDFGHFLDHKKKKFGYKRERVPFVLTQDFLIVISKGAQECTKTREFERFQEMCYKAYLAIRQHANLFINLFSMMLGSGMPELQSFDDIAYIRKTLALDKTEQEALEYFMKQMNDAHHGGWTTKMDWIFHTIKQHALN"}, "[2]": {"target": "ACVR1B (Homo sapiens, UniProt P36896)"}, "[3]": {"target": "FGFR1 (Homo sapiens, UniProt P11362)"}, "[4]": {"target": "DAPK1 (Homo sapiens, UniProt P53355)"}, "[5]": {"target": "CAMK1 (Homo sapiens, UniProt Q14012)"}, "[6]": {"target": "EPHA2 (Homo sapiens, UniProt P29317)", "sequence (P29317 whole entry)": "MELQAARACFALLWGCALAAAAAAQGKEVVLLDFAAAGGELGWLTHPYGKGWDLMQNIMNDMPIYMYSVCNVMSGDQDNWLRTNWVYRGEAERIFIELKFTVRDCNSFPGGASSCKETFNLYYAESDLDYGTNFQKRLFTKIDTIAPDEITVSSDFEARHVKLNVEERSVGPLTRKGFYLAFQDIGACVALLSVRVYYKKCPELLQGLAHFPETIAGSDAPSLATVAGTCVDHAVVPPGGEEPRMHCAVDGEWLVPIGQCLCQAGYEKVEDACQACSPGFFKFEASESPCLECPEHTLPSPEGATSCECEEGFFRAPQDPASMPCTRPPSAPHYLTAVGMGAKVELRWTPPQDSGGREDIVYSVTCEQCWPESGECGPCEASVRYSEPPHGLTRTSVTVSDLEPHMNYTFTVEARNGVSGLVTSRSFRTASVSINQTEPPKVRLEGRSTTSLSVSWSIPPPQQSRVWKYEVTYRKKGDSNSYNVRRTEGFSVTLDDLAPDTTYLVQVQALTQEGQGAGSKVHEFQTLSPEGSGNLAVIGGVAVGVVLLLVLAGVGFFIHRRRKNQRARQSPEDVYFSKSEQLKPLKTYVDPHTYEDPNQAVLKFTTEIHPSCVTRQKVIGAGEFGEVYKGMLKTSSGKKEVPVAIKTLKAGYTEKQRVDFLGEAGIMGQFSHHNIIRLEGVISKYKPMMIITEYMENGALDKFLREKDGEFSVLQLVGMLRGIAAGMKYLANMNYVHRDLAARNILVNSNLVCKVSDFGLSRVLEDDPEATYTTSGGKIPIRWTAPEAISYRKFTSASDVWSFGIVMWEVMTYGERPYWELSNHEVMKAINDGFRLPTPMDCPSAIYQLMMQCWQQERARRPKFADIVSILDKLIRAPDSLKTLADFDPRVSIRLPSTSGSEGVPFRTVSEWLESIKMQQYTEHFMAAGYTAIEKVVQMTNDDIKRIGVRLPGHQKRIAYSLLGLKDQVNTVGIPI"}, "[7]": {"target": "T1, YANK3 (Homo sapiens, UniProt Q86UX6)", "T1 construct": "gene STK32C"}, "[8]": {"target": "PRKCQ (Homo sapiens, UniProt Q04759)"}, "[9]": {"target": "T2, LKB1 (Homo sapiens, UniProt Q15831)", "T2 construct": "gene STK11"}, "[10]": {"target": "PRKCI (Homo sapiens, UniProt P41743)", "sequence (P41743 whole entry)": "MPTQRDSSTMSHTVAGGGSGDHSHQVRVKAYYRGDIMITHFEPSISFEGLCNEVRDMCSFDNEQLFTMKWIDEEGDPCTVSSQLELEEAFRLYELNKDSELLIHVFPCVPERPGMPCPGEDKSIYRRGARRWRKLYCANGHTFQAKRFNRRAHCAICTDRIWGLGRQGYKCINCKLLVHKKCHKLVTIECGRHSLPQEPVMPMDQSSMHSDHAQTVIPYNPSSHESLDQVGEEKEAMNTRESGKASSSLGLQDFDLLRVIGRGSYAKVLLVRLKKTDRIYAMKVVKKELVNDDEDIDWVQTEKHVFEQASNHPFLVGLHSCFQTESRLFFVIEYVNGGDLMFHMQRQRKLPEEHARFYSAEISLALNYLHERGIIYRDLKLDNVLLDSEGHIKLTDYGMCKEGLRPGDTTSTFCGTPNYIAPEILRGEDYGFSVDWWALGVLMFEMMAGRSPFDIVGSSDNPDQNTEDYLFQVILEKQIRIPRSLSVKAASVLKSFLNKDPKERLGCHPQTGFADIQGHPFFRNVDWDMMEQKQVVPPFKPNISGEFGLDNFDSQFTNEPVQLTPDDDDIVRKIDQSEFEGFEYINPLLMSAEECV"}, "[11]": {"target": "CSNK1E (Homo sapiens, UniProt P49674)"}, "[12]": {"target": "T3, DCAMKL3 (Homo sapiens, UniProt Q9C098)", "T3 construct": "gene DCLK3"}, "[13]": {"target": "TEC (Homo sapiens, UniProt P42680)"}, "[14]": {"target": "T4, MEK6 (Homo sapiens, UniProt P52564)", "T4 construct": "gene MAP2K6"}, "[15]": {"target": "T5, ABL1(T315I)-nonphosphorylated (Homo sapiens, UniProt P00519, T315I)", "T5 construct": "nonphosphorylated"}, "[16]": {"target": "T6, CDK11 (Homo sapiens, UniProt Q9BWU1)", "T6 construct": "gene CDK19", "T6 sequence (Q9BWU1 whole entry)": "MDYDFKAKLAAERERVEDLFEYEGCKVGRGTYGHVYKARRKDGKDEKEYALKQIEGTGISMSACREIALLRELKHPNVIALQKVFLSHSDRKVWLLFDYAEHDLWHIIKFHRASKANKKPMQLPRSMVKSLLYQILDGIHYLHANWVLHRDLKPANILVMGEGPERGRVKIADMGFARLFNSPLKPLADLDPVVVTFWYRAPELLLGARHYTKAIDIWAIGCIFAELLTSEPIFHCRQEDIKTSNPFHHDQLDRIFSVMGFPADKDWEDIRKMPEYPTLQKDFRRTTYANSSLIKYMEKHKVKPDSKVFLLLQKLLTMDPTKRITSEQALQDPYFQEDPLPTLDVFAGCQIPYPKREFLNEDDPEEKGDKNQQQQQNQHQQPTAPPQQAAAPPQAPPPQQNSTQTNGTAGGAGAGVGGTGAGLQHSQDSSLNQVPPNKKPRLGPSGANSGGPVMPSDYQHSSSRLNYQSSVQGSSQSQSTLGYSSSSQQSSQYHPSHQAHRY"}, "[17]": {"target": "MYLK (Homo sapiens, UniProt Q15746)", "sequence (Q15746 whole entry)": "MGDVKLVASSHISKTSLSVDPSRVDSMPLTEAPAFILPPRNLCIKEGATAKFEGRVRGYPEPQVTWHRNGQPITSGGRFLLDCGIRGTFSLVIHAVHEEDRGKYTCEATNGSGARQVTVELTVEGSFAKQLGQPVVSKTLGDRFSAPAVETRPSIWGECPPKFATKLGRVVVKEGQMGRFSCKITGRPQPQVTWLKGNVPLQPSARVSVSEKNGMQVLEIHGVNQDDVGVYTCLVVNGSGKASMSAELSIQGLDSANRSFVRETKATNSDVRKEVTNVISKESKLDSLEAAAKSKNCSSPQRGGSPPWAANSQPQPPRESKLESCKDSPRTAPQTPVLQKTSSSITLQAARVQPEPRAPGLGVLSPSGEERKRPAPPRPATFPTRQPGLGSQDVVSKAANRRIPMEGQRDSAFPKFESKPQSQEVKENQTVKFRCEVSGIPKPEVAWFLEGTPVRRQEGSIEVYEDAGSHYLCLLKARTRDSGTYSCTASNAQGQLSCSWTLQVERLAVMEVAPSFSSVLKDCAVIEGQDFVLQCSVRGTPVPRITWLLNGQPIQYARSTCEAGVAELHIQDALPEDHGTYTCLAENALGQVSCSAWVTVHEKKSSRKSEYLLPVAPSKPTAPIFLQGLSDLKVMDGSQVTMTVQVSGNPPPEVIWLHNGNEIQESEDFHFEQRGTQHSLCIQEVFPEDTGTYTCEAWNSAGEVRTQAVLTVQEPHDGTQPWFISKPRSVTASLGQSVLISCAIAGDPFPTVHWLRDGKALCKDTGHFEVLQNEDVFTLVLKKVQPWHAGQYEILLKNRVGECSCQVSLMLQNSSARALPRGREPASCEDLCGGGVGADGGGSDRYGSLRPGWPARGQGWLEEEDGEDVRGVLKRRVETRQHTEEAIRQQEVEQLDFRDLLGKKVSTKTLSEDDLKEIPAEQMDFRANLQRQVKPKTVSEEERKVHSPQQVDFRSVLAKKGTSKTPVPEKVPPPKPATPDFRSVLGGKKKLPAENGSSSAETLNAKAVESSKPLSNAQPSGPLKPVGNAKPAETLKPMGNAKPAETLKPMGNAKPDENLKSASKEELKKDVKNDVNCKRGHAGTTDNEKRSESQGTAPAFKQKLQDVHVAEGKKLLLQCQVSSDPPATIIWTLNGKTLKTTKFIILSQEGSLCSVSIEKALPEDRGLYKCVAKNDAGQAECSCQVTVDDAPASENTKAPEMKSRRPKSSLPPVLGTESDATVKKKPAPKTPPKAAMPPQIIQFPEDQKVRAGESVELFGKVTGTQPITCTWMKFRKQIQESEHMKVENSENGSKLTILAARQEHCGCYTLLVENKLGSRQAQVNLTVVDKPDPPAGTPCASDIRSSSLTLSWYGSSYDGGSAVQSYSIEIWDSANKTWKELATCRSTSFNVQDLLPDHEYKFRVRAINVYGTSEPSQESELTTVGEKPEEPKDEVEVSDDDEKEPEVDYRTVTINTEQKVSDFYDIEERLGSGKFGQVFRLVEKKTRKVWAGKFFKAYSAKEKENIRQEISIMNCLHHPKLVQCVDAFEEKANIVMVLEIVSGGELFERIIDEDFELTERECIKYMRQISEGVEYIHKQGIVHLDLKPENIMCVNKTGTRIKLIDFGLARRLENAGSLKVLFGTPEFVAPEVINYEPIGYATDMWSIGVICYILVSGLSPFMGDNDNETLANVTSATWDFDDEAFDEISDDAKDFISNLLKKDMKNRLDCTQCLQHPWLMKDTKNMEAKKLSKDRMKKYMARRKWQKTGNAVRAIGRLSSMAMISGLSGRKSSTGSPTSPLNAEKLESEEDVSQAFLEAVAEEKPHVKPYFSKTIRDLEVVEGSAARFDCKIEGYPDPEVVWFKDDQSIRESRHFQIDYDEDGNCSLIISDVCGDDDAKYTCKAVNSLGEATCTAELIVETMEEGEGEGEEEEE"}, "[18]": {"target": "T7, p38-delta (Homo sapiens, UniProt O15264)", "T7 construct": "gene MAPK13"}}, "data": [{"smiles": "c1ccc2c(c1)Sc1ccccc1N2CCN1CCOCC1", "note": "[J54]", "values": [{"measurement": "remaining binding", "setting": "[1]", "value": 97, "unit": "%"}, {"measurement": "remaining binding", "setting": "[2]", "value": 88, "unit": "%"}, {"measurement": "remaining binding", "setting": "[3]", "value": 94, "unit": "%"}, {"measurement": "remaining binding", "setting": "[4]", "value": 99, "unit": "%"}, {"measurement": "remaining binding", "setting": "[5]", "value": 97, "unit": "%"}, {"measurement": "remaining binding", "setting": "[6]", "value": 100, "unit": "%"}, {"measurement": "remaining binding", "setting": "[7]", "value": 100, "unit": "%"}, {"measurement": "remaining binding", "setting": "[8]", "value": 96, "unit": "%"}, {"measurement": "remaining binding", "setting": "[9]", "value": 89, "unit": "%"}, {"measurement": "remaining binding", "setting": "[10]", "value": 98, "unit": "%"}, {"measurement": "remaining binding", "setting": "[11]", "value": 100, "unit": "%"}, {"measurement": "remaining binding", "setting": "[12]", "value": 95, "unit": "%"}, {"measurement": "remaining binding", "setting": "[13]", "value": 100, "unit": "%"}, {"measurement": "remaining binding", "setting": "[14]", "value": 96, "unit": "%"}, {"measurement": "remaining binding", "setting": "[15]", "value": 94, "unit": "%"}, {"measurement": "remaining binding", "setting": "[16]", "value": 81, "unit": "%"}, {"measurement": "remaining binding", "setting": "[17]", "value": 97, "unit": "%"}, {"measurement": "remaining binding", "setting": "[18]", "value": 100, "unit": "%"}]}]}
